Laboratory results from ChEMBL document CHEMBL1201862, “PubChem BioAssay data set” (2004).
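Values below derive from 48-hour exposures of cells grown in 96-well plates, with endpoints linearly interpolated between the two concentrations bracketing the appropriate inhibition level. At the GI50, growth is halved.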 Active and inactive are the calls of the source. Cut-off read from the data, not from the text of the source: active = GI50 up to about 1.1 µM and inactive = higher.

What was measured:
Assay in all cases: NCI anticancer screen, dose series, 48 h
ACHN = system: ACHN
COLO 205 = system: COLO 205
PC-3 = system: PC-3
A498 = system: A498
SK-MEL-5 = system: SK-MEL-5
SK-OV-3 = system: SK-OV-3
NCI-H226 = system: NCI-H226
SF-295 = system: SF-295
A549 = system: A549
HCT-116 = system: HCT-116
SF-268 = system: SF-268
M14 = system: M14
HOP-62 = system: HOP-62
SN12C = system: SN12C
IGROV-1 = system: IGROV-1
OVCAR-3 = system: OVCAR-3
SF-539 = system: SF-539
MCF7 = system: MCF7
MOLT-4 = system: MOLT-4

Measured: GI50

NCCSc1nc(-c2ccccc2)c(-c2ccccc2)o1
inactive: ACHN > 100 µM | COLO 205 > 100 µM | PC-3 > 100 µM | A498 > 100 µM | SK-MEL-5 > 100 µM | SK-OV-3 73.3 µM | NCI-H226 > 100 µM | SF-295 > 100 µM | A549 > 100 µM | HCT-116 37.1 µM | SF-268 > 100 µM | M14 > 100 µM | HOP-62 > 100 µM | SN12C 77.8 µM | IGROV-1 71.4 µM | OVCAR-3 > 100 µM | SF-539 > 100 µM | MCF7 > 100 µM

Fc1ccc(OCc2nc3cc(C(F)(F)F)ccc3nc2-c2ccccc2)cc1
inactive: ACHN > 100 µM | COLO 205 > 100 µM | PC-3 > 100 µM | A498 > 100 µM | SK-MEL-5 29.7 µM | NCI-H226 > 100 µM | SF-295 > 100 µM | A549 > 100 µM | HCT-116 99.5 µM | SF-268 > 100 µM | M14 > 94 µM | MOLT-4 13.2 µM | HOP-62 > 100 µM | SN12C > 100 µM | IGROV-1 > 100 µM | OVCAR-3 > 100 µM | SF-539 > 100 µM | MCF7 67.8 µM

O=C(O)CN1CCN2CCCCCN(CC1)CCN(CC(=O)O)CC2
inactive: ACHN > 100 µM | COLO 205 > 100 µM | PC-3 > 100 µM | A498 > 100 µM | SK-MEL-5 > 100 µM | SK-OV-3 > 100 µM | NCI-H226 > 100 µM | SF-295 > 100 µM | A549 > 100 µM | HCT-116 73.8 µM | M14 > 100 µM | HOP-62 > 100 µM | SN12C > 100 µM | IGROV-1 > 100 µM | OVCAR-3 > 100 µM | SF-539 > 100 µM | MCF7 > 100 µM

CS/C(Nc1ccccc1)=C1\C(=O)N(c2ccccc2)N=C1C
inactive: COLO 205 > 100 µM | PC-3 > 100 µM | A498 95.7 µM | SK-MEL-5 > 100 µM | SK-OV-3 > 100 µM | NCI-H226 > 100 µM | A549 > 100 µM | HCT-116 > 100 µM | SF-268 > 100 µM | M14 > 100 µM | MOLT-4 > 100 µM | SN12C > 100 µM | OVCAR-3 > 100 µM | SF-539 > 100 µM | MCF7 > 100 µM

Cc1c/c(=N/NC(=O)c2ccncc2)n2nc(N)sc2n1
inactive: ACHN > 100 µM | COLO 205 > 100 µM | PC-3 > 100 µM | A498 > 100 µM | SK-MEL-5 > 100 µM | SK-OV-3 > 100 µM | NCI-H226 > 100 µM | SF-295 > 100 µM | A549 > 100 µM | HCT-116 > 100 µM | M14 > 100 µM | MOLT-4 > 100 µM | HOP-62 > 100 µM | SN12C > 100 µM | IGROV-1 > 100 µM | OVCAR-3 > 100 µM | SF-539 > 100 µM | MCF7 > 100 µM

Cc1c(-c2ccccn2)ccc2ccccc12
inactive: ACHN 52.7 µM | COLO 205 41.4 µM | PC-3 47.3 µM | A498 > 100 µM | SK-MEL-5 35.7 µM | SK-OV-3 > 100 µM | NCI-H226 43 µM | SF-295 83.8 µM | A549 69.5 µM | HCT-116 43.4 µM | SF-268 54 µM | M14 > 100 µM | MOLT-4 90.2 µM | HOP-62 > 100 µM | SN12C 61.1 µM | OVCAR-3 41.4 µM | SF-539 > 100 µM | MCF7 88.7 µM

C1CSCCCSCCSCCCSC1
inactive: ACHN > 100 µM | COLO 205 > 100 µM | PC-3 > 100 µM | A498 > 100 µM | SK-MEL-5 > 100 µM | SK-OV-3 > 100 µM | NCI-H226 > 100 µM | SF-295 > 100 µM | A549 > 100 µM | HCT-116 > 100 µM | SF-268 > 100 µM | M14 > 100 µM | MOLT-4 > 100 µM | HOP-62 > 100 µM | SN12C > 100 µM | IGROV-1 > 100 µM | SF-539 > 100 µM | MCF7 > 100 µM

CCN(CC)CCNc1nc2ccc([N+](=O)[O-])cc2[n+]([O-])n1
inactive: ACHN 36.8 µM | COLO 205 2.84 µM | PC-3 20.1 µM | A498 28.4 µM | SK-MEL-5 10.5 µM | NCI-H226 83 µM | SF-295 32.1 µM | A549 21.1 µM | HCT-116 15.7 µM | SF-268 41 µM | M14 16.2 µM | MOLT-4 18.9 µM | SN12C 19 µM | IGROV-1 15.7 µM | OVCAR-3 30.3 µM | SF-539 23.3 µM | MCF7 2.24 µM

CC(=O)OC1CC2CCC1(C)C2(C)C (stereo not given)
inactive: ACHN > 100 µM | COLO 205 > 100 µM | PC-3 > 100 µM | A498 > 100 µM | SK-OV-3 > 100 µM | NCI-H226 > 100 µM | SF-295 > 100 µM | HCT-116 > 100 µM | SF-268 > 100 µM | M14 > 100 µM | MOLT-4 > 100 µM | HOP-62 > 100 µM | SN12C > 100 µM | IGROV-1 > 100 µM | OVCAR-3 > 100 µM | SF-539 > 100 µM | MCF7 > 100 µM

CN(C)c1ccc(C2C(Cl)C(=O)N2NC(=O)c2c(Cl)c(Cl)c(Cl)c(Cl)c2-c2nc3ccccc3[nH]2)cc1 (stereo not given)
inactive: ACHN 15.8 µM | COLO 205 7.67 µM | PC-3 12.9 µM | A498 22.3 µM | SK-MEL-5 16.1 µM | SK-OV-3 33.7 µM | NCI-H226 15.8 µM | SF-295 42.6 µM | A549 31.6 µM | HCT-116 5.2 µM | SF-268 11.5 µM | M14 13.3 µM | MOLT-4 2.68 µM | SN12C 11.1 µM | IGROV-1 1.62 µM | OVCAR-3 19.4 µM | SF-539 7.89 µM | MCF7 5.53 µM

COCC1OCCN1C (stereo not given)
inactive: ACHN > 100 µM | COLO 205 > 100 µM | PC-3 > 100 µM | A498 > 100 µM | SK-MEL-5 > 100 µM | SK-OV-3 > 100 µM | NCI-H226 > 100 µM | SF-295 > 100 µM | A549 > 100 µM | HCT-116 > 100 µM | SF-268 > 100 µM | M14 > 100 µM | MOLT-4 > 100 µM | HOP-62 > 100 µM | IGROV-1 > 100 µM | OVCAR-3 > 100 µM | SF-539 > 100 µM | MCF7 > 100 µM

CC(=O)OCC(OC(C)=O)C(OC(C)=O)C(OC(C)=O)C(C=NN(C(C)=O)S(=O)(=O)c1ccc(/C=C2\NC(=O)N(C)C2=O)cc1)OC(C)=O (stereo not given)
inactive: ACHN 34.5 µM | COLO 205 26.2 µM | PC-3 40.1 µM | A498 59.7 µM | SK-MEL-5 30.1 µM | SK-OV-3 48.5 µM | NCI-H226 38.7 µM | SF-295 95.9 µM | A549 56 µM | HCT-116 16.9 µM | SF-268 30.1 µM | M14 69.2 µM | HOP-62 85.1 µM | SN12C 27.8 µM | IGROV-1 31.6 µM | OVCAR-3 41.4 µM | MCF7 40.1 µM

O=[N+]([O-])c1cc2c(cc1/C=N/n1c(CO)nc3ccccc31)OCO2
inactive: ACHN > 100 µM | COLO 205 > 100 µM | PC-3 > 100 µM | A498 > 100 µM | SK-MEL-5 > 100 µM | SK-OV-3 > 100 µM | NCI-H226 > 100 µM | SF-295 > 100 µM | A549 > 100 µM | HCT-116 > 100 µM | SF-268 > 100 µM | M14 > 100 µM | MOLT-4 > 100 µM | HOP-62 > 100 µM | SN12C > 100 µM | OVCAR-3 > 100 µM | SF-539 > 100 µM | MCF7 > 100 µM

CC(=O)N1CC(=O)N2C(=O)/C(=C/c3ccc(Cl)cc3)N=C12
inactive: ACHN > 100 µM | COLO 205 > 100 µM | PC-3 > 100 µM | A498 > 100 µM | SK-MEL-5 > 100 µM | SK-OV-3 > 100 µM | NCI-H226 > 100 µM | SF-295 > 100 µM | A549 > 100 µM | HCT-116 > 100 µM | SF-268 > 100 µM | M14 > 100 µM | MOLT-4 48.3 µM | HOP-62 > 100 µM | SN12C > 100 µM | OVCAR-3 > 100 µM | SF-539 > 100 µM | MCF7 97.9 µM

CC1(C)C2CCC3=C(CCC4(C)C5C[C@](C)(C(=O)O)CC[C@]5(C)CC[C@]34C)[C@@]2(C)CC[C@@H]1O (stereo not given in full)
inactive: ACHN 12.1 µM | COLO 205 38.3 µM | PC-3 14.8 µM | A498 26.5 µM | SK-MEL-5 34.3 µM | SK-OV-3 20.2 µM | NCI-H226 29 µM | A549 13.1 µM | HCT-116 16.6 µM | SF-268 31.2 µM | M14 17.5 µM | MOLT-4 15.8 µM | HOP-62 17 µM | IGROV-1 24.2 µM | OVCAR-3 15.9 µM | SF-539 37.3 µM | MCF7 19.9 µM

O=C(Nc1ccccc1)c1cc2cc(CCl)ccc2oc1=O
inactive: ACHN 17 µM | COLO 205 > 100 µM | PC-3 > 100 µM | A498 13 µM | SK-MEL-5 > 100 µM | SK-OV-3 > 100 µM | NCI-H226 > 100 µM | SF-295 45.5 µM | A549 99.3 µM | HCT-116 > 100 µM | SF-268 47 µM | M14 > 100 µM | MOLT-4 > 100 µM | HOP-62 81.7 µM | SN12C > 100 µM | IGROV-1 > 100 µM | OVCAR-3 > 100 µM | MCF7 26.4 µM
